According to patent US9821072B2, “Activated neurotensin molecules and the uses thereof” (priority 2014, dated 2017):
Bridge positions count the residues as written; N and C are the ends. Square brackets hold non-standard residues; d marks the D form. Peptide text beside a SMILES is read from it. * marks the point of attachment. Pen = CC(C)(S)[C@H](N)C(=O)O; Tle = CC(C)(C)[C@H](N)C(=O)O; Pip = O=C(O)[C@@H]1CCCCN1; Propionyl = CCC(=O)*; Sar = CNCC(=O)O

What was measured:
[1] = molecular target: T1, human neurotensin receptor type 1 (hNTR-1) (Homo sapiens, UniProt P30989); assay: Competition binding assay with [3H]-neurotensin on human NTR-1 membranes (CHO cells); details: read-out: NTR-1 binding affinity Ki, Human NTR-1
T1 construct: purchased PerkinElmer; host or cells: CHO cells stably expressing human NTR-1 (membrane homogenates)
T1 sequence (P30989 whole entry): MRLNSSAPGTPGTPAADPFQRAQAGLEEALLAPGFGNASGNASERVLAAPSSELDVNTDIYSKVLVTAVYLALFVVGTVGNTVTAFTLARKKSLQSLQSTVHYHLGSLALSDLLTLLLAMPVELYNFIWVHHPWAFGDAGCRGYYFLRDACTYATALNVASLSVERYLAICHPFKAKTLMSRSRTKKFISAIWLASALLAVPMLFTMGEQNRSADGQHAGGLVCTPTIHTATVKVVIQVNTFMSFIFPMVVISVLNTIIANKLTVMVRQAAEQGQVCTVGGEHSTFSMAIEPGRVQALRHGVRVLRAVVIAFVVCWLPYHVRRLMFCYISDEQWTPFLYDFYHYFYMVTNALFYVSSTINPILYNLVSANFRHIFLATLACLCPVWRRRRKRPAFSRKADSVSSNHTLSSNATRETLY

[2] = molecular target: T2, rat neurotensin receptor type 1 (rNTR-1) (Rattus norvegicus, UniProt P20789); assay: Competition binding assay with [3H]-neurotensin on rat NTR-1 membranes (HEK293 cells); details: read-out: NTR-1 binding affinity Ki, Rat NTR-1
T2 construct: host or cells: HEK293 cells (membrane homogenates)
T2 sequence (P20789 whole entry): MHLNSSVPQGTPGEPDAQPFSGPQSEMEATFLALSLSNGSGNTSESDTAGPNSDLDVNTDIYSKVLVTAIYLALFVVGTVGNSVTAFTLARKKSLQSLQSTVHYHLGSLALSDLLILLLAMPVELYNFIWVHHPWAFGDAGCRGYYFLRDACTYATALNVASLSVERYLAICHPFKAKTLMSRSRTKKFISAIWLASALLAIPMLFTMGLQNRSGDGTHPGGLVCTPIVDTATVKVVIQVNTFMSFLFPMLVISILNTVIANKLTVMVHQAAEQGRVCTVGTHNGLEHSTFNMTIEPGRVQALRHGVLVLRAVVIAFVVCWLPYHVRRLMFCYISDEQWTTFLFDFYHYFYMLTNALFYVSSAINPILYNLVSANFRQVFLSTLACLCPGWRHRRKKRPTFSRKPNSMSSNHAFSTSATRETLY

[3] = test system: Sprague-Dawley rats; assay: Hypothermic response after i.v. bolus in Sprague-Dawley rats; assay type: in vivo, rat; details: 5 mg/kg eq. NT i.v. bolus
[4] = test system: FVB/N mice with KA-induced status epilepticus; assay: Kainic acid-induced status epilepticus model (body temperature, seizures, neurodegeneration, neuroinflammation, mossy fiber sprouting); assay type: in vivo, mouse; details: administered 30 min after SE onset
Source text: In the present case, excitotoxicity was induced by subcutaneous (s.c.) injection of kainic acid (KA), a pro-convulsant agent known to induce a status epilepticus (SE) with excitotoxicity, neuroinflammation, and severe neuronal damage in the hippocampus that can be observed 3 to 7 days after KA administration, and with aberrant axonal sprouting of the dentate gyrus mossy fibers that can be observed at 7-8 weeks after KA administration. We tested the effect of compound XIV on i) epileptic activity (persistence of recurrent seizures), ii) neurodegeneration, neuroinflammation and the resulting brain tissue damage and iii) aberrant axonal sprouting of the dentate gyrus mossy fibers.
FVB/N adult male mice were injected with a single dose of KA (40-45 mg/kg s.c.) to generate mice with spontaneous recurrent seizures as a hallmark of SE. A negative control group of mice were administered saline 0.9% instead of KA and no further treatment (“SHAM”, n=5). Thirty minutes after the onset of SE, mice received either an intravenous (tail vein) bolus injection of compound XIV at the dose of 4 mg/kg eq. NT (treatment group “SE+HT”, n=5) or saline 0.9% (group “SE”, n=5), or a high dose of diazepam (DZP) at 15 mg/kg), a potent anti-convulsive and anti-epileptic drug (positive control group “SE+DZP”). Body temperature was monitored before KA injection and then every 15 min during 6 hours thereafter, using a rectal probe. During this period, mice were assessed for the occurrence and severity of motor seizures. One week later, animals were sacrificed for histological assessment of neuronal cell death on coronal sections, the hippocampal formation being the main structure in the brain showing tissue damage in this model of excitotoxicity. Another group of animals with the same treatments was sacrificed 8 weeks for histological assessment of aberrant axonal sprouting of the dentate gyrus mossy fibers.
Administration of KA (40-45 mg/kg; s.c.) caused characteristic sequential behavioral changes. Immediately after being injected, all animals developed immobility (stage 1). Within 30 minutes after KA injection, automatisms with head nodding, forelimb clonus and circling behavior (stages 2-3) were observed. Then most animals progressed to intermittent (stage 4) followed by continuous (stage 5) rearing with forelimb clonus and falling behavior. […] Only animals attaining at least Racine stage 5 seizures were included in the study. The SE occurred around 2 hours after KA injection, was characterized by stage 5-6 seizures and often associated with hyperthermia (FIG. 13A). Compound XIV administered 30 min after SE onset (SE30) invariably led to transient hypothermia (FIG. 13A), which persisted at least 2 hrs. Mean decreases in body temperature (BT) of −2.5° C. and −3.6° C. were respectively recorded for SE30+ compound XIV animals as compared to SE animals (F=52.34; ***P<0.001). […] SE30+ compound XIV animals presented an average of stage 2 seizures or fewer during the rest of experiment. A subset of animals was administered i.p. a high dose of diazepam (DZP). […] Thus, administration of compound XIV at the dose of 4 mg/kg eq. […] This effect correlated with a −3 to −6° C. decrease in body temperature during ˜2.5 hours.
Using the anti-NeuN antibody and Fluoro-jade C that respectively label a neuronspecific nuclear protein and neuronal death, we observed a broad loss of CA1 and CA3 pyramidal cells as well as some dentate hilar neurons in the hippocampus of control SE animals (FIG. 14A, panel B), as compared to SHAM animals (FIG. 14A, panel A).
SE-induced gliosis involved microglia and astroglial cell types. We used GFAP and Iba1 immunolabeling to estimate the effect of compound XIV on neuroinflammation. In SHAM animals, a basal labeling for GFAP and Iba1 was detected in the HF (FIG. 14A, panel D). In SE animals, a very strong activation of glial cells occurred in all hippocampal layers (FIG. 14, panels E, H). […]

SMILES: CCC(=O)N[C@@H]1CSSC[C@@H](C(=O)N[C@@H](CCCNC(=N)N)C(=O)N[C@@H](CCCNC(=N)N)C(=O)N2CCC[C@H]2C(=O)N[C@@H](Cc2ccc(O)cc2)C(=O)N[C@H](C(=O)N[C@@H](CC(C)C)C(=O)O)C(C)(C)C)NC(=O)CN(C)C(=O)[C@H](CCCNC(=N)N)NC(=O)[C@H](CC(C)C)NC(=O)[C@H](CCCNC(=N)N)NC(=O)[C@@H]2CCCCN2C(=O)[C@H](CCSC)NC1=O [Compound XV, Pr-cMPipRLRSarC-RRPYTIeL-OH] (Propionyl-[dC]M[Pip]RLR[Sar]CRRPY[Tle]L-OH; disulfide 1-8)
- Ki [1]: 0.4 ± 0.2 nM
- Ki [2]: 0.06 ± 0.02 nM
- Maximal decrease in body temperature ([3]; 60 to 90 min post-injection): around −2 °C

SMILES: CN1C(=O)CN=C(c2ccccc2)c2cc(Cl)ccc21 [DZP, diazepam, reference compound]
- effect on body temperature (BT) compared with SE animals [4]: hypothermia was also observed
- glial inflammatory response in the hippocampus (GFAP, Iba1) compared with SE animals [4]: significantly decreased
- seizure stage (Racine) during the rest of the experiment [4]: 1-2 stage
- number of mossy fiber terminals innervating the IML (ZnT3) compared with SE animals ([4]; 8 weeks after SE): considerably reduced
- neurodegeneration in the hippocampus (NeuN, Fluoro-jade C) compared with SE animals ([4]; one week later): significantly decreased

SMILES: CCC(=O)N[C@@H]1CSSC[C@@H](C(=O)N[C@@H](CCCNC(=N)N)C(=O)N[C@@H](CCCCN)C(=O)N2CCC[C@H]2C(=O)N[C@@H](Cc2ccc(O)cc2)C(=O)N[C@H](C(=O)N[C@@H](CC(C)C)C(=O)O)C(C)(C)C)NC(=O)CN(C)C(=O)[C@H](CCCNC(=N)N)NC(=O)[C@H](CC(C)C)NC(=O)[C@H](CCCNC(=N)N)NC(=O)[C@@H]2CCCCN2C(=O)[C@H](CCSC)NC1=O [XVII, Pr-cMPipRLRSarC-RKPYTIeL-OH] (Propionyl-[dC]M[Pip]RLR[Sar]CRKPY[Tle]L-OH; disulfide 1-8)
- Ki [1]: 0.47 ± 0.19 nM
- Ki [2]: 0.19 ± 0.07 nM
- Maximal decrease in body temperature ([3]; 60 to 90 min post-injection): around −2 °C

SMILES: CCC(=O)N[C@@H]1CSSC[C@@H](C(=O)N[C@@H](CCCNC(=N)N)C(=O)N[C@@H](CCCNC(=N)N)C(=O)N2CCC[C@H]2C(=O)N[C@@H](Cc2c[nH]c3ccccc23)C(=O)N[C@H](C(=O)N[C@@H](CC(C)C)C(=O)O)C(C)(C)C)NC(=O)CN(C)C(=O)[C@H](CCCNC(=N)N)NC(=O)[C@H](CC(C)C)NC(=O)[C@H](CCCNC(=N)N)NC(=O)[C@@H]2CCCCN2C(=O)[C@H](CCSC)NC1=O [XVIII, Pr-cMPipRLRSarC-RRPWTIeL-OH] (Propionyl-[dC]M[Pip]RLR[Sar]CRRPW[Tle]L-OH; disulfide 1-8)
- Ki [1]: 2.98 ± 1.08 nM
- Ki [2]: 0.02 ± 0.01 nM
- Maximal decrease in body temperature ([3]; 90 min post-injection): around −2.8 °C

SMILES: CCC(=O)N[C@@H]1CSSC[C@@H](C(=O)N[C@@H](CCCCN)C(=O)N[C@@H](CCCNC(=N)N)C(=O)N2CCC[C@H]2C(=O)N[C@@H](Cc2c[nH]c3ccccc23)C(=O)N[C@H](C(=O)N[C@@H](CC(C)C)C(=O)O)C(C)(C)C)NC(=O)CN(C)C(=O)[C@H](CCCNC(=N)N)NC(=O)[C@H](CC(C)C)NC(=O)[C@H](CCCNC(=N)N)NC(=O)[C@@H]2CCCCN2C(=O)[C@H](CCSC)NC1=O [XIX, Pr-cMPipRLRSarC-KRPWTIeL-OH] (Propionyl-[dC]M[Pip]RLR[Sar]CKRPW[Tle]L-OH; disulfide 1-8)
- Ki [1]: 6.34 ± 2.25 nM
- Ki [2]: 0.03 ± 0.02 nM
- Maximal decrease in body temperature ([3]; 90 min post-injection): around −2.8 °C

SMILES: CCC(=O)N[C@@H]1CSSC[C@@H](C(=O)N[C@@H](CCCNC(=N)N)C(=O)N[C@@H](CCCNC(=N)N)C(=O)N2CCC[C@H]2C(=O)N[C@@H](Cc2ccc(O)cc2)C(=O)N[C@H](C(=O)N[C@@H](CC(C)C)C(=O)O)[C@@H](C)CC)NC(=O)CN(C)C(=O)[C@H](CCCNC(=N)N)NC(=O)[C@H](CC(C)C)NC(=O)[C@H](CCCNC(=N)N)NC(=O)[C@@H]2CCCCN2C(=O)[C@H](CCSC)NC1=O [Compound IX, Pr-cMPipRLRSarC-RRPYIL-OH]
- Maximal decrease in body temperature ([3]; 30 min post-injection): −1.2 °C

SMILES: CCC(=O)N[C@@H]1CSSC(C)(C)[C@@H](C(=O)N[C@@H](CCCCN)C(=O)N[C@@H](CCCNC(=N)N)C(=O)N2CCC[C@H]2C(=O)N[C@@H](Cc2ccc(O)cc2)C(=O)N[C@H](C(=O)N[C@@H](CC(C)C)C(=O)O)C(C)(C)C)NC(=O)CN(C)C(=O)[C@H](CCCNC(=N)N)NC(=O)[C@H](CC(C)C)NC(=O)[C@H](CCCNC(=N)N)NC(=O)[C@@H]2CCCCN2C(=O)[C@H](CCSC)NC1=O [XX, Pr-cMPipRLRSarPen-KRPYTIeL-OH] (Propionyl-[dC]M[Pip]RLR[Sar][Pen]KRPY[Tle]L-OH; disulfide 1-8)
- Ki [1]: 0.11 ± 0.03 nM
- Ki [2]: 0.08 ± 0.06 nM
- Maximal decrease in body temperature ([3]; 60 to 90 min post-injection): around −2 °C

SMILES: CCC(=O)N[C@@H]1CSSC[C@@H](C(=O)N[C@@H](CCCCN)C(=O)N[C@@H](CCCNC(=N)N)C(=O)N2CCC[C@H]2C(=O)N[C@@H](Cc2ccc(O)cc2)C(=O)N[C@H](C(=O)N[C@@H](CC(C)C)C(=O)O)C(C)(C)C)NC(=O)CN(C)C(=O)[C@H](CCCNC(=N)N)NC(=O)[C@H](CC(C)C)NC(=O)[C@H](CCCNC(=N)N)NC(=O)[C@@H]2CCCCN2C(=O)[C@H](CCSC)NC1=O [XVI, Pr-cMPipRLRSarC-KRPYTIeL-OH] (Propionyl-[dC]M[Pip]RLR[Sar]CKRPY[Tle]L-OH; disulfide 1-8)
- Ki [1]: 0.15 ± 0.06 nM
- Maximal decrease in body temperature ([3]; 60 to 90 min post-injection): around −2 °C
